We go through eleven compounds from patent US8222285B2, “1,3-dihydroxy substituted phenylamide glucokinase activators” (Bristol-Myers Squibb Company, priority 2007, dated 2012).

For test [1], the target named is T1, human glucokinase (GK) (Homo sapiens, UniProt P35557).
T1 construct: Full-length human hepatic GK (untagged) was expressed in BL21 STAR (DE3)pLysS cells; made in house; host or cells: E. coli BL21 STAR (DE3)pLysS
T1 sequence (P35557 1-466 isoform P35557-2): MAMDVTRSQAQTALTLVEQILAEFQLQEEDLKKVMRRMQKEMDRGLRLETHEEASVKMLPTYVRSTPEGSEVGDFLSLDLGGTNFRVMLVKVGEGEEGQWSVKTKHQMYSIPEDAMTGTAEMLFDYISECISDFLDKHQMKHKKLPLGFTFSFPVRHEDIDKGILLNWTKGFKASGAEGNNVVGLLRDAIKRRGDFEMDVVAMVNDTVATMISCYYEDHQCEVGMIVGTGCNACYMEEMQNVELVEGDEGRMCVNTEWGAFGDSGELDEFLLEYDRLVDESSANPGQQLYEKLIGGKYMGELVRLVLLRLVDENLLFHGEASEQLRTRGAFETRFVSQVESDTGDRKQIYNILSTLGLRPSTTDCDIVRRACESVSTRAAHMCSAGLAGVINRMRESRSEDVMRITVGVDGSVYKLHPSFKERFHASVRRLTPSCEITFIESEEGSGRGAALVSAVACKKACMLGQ
Briefly: Glucokinase tandem enzymatic assay. It counts as biochemical. The note with it: for EC50: full-length human GK 15 nM; for Emax: read-out: Maximal activation (%) Human Glucokinase @ 12 mM Glucose. How it is done:
Glucokinase Tandem Enzymatic Assay
Enzymatic activity of human glucokinase (GK) was measured by incubating GK, ATP, and glucose for discrete time periods followed by quenching with EDTA (ethylenediamine tetra-acetic acid). Relative amounts of product glucose-6-phosphate (G6P) were measured by then running a detection assay using G6P dehydrogenase and measuring the conversion of ThioNAD (thio-nicotinamide adenine dinucleotide) to ThioNADH (thio-dihydronicotinamide adenine dinucleotide) at a wavelength of 405 nm. This ‘uncoupled’ enzymatic reaction is denoted as the GK ‘tandem’ assay. Activation of GK by compounds can be assessed using this assay. The GK tandem assay protocol described below was followed using a range of activator compound concentrations from 0 to 100 μM at 5 and 12 mM of glucose. Human full-length glucokinase (GK, 15 nM) was incubated with 5 or 12 mM glucose in a 384 well black microtiter plate with a clear bottom. To initiate the GK reaction, magnesium-ATP (3 mM final concentration) was added to GK in buffer (final buffer conditions of 25 mM HEPES buffer, pH 7.1, containing 1 mM dithiothreitol and 5% DMSO). The total reaction volume was 20 μL. The reaction was allowed to proceed for ten minutes and was then quenched with 5 μL EDTA; 45 mM final). The components of the detection reaction, ThioNAD and G6PDH (glucose-6-phosphate dehydrogenase) (final concentrations of 650 μM and 3.33 Units, respectively), were then added together in a volume of 25 μL, (to give a total volume of 50 μL). Absorbance measurements were made at 405 nm on a Spectramax Plus 384 absorbance plate reader (Molecular Devices). Absorbance was read, background glucose-6-phosphate levels were subtracted, after which activation was calculated as a percentage of control activity. Control activity was determined using GK in the presence of vehicle (DMSO), with background glucose-6-phosphate subtracted. Background glucose-6-phosphate was determined by pre-quenching GK with EDTA prior to reaction initiation with ATP.
Expression and Purification of Human GK
Full-length human hepatic GK (untagged) was expressed in BL21 STAR (DE3)pLysS cells (Invitrogen) at 25° C. as described by Mookhtiar et al. (1). The protein was purified essentially as described by Lange (2) with a slight modification. Briefly, cell pellets were lysed via three rounds of freezing and thawing, centrifuged at 15000 g for clarification, and precipitated with 40-65% (NH4)2SO4. The resulting pellet was resuspended in buffer, dialyzed, and applied directly to a Q-Sepharose (Sigma) column followed by elution with a linear 100-600 mM KCl gradient. GK containing fractions were pooled, dialyzed overnight vs. 25 mM Hepes pH 7.2/1 mM MgCl2/1 mM EDTA/0.1 M KCl/1 mM DTT, then dialyzed again with same buffer with 10% glycerol added.

The subject of test [2] is male DIO (diet-induced obese) C57BL/6J mice. Briefly: Oral glucose tolerance test (OGTT) in DIO mice. The format is in vivo. The settings on record: 30 mg/kg oral, 60 min before 2 g/kg oral glucose; ΔAUC 0-120 min; DIO C57BL/6J mice. How it is done: In Vivo Studies: Oral Glucose Tolerance Test (OGTT)
Oral glucose tolerance tests were carried out on male DIO (diet-induced obese) C57BL/6J mice fed a high fat diet (60% kcal from fat) for 26 weeks prior to experimentation. Mice were fasted overnight before use for experiments. A test compound or vehicle (10% dimethyl acetamide+10% ethanol+10% Cremophore+70% water) was given orally 60 min before oral administration of a glucose solution at a dose of 2 g/kg body weight (oral glucose tolerance test; OGTT). Blood glucose levels were measured from tail-bled samples taken at different time points before and after administration of glucose (time course of 2 hours). A time curve of the blood glucose was generated and the change from baseline area-under-the curve (ΔAUC) from 0-120 min was calculated (the time glucose administration being time zero).

The mark [3] stands for this setting: 12 mM glucose, expressed as % of basal activation, EC50 could not be calculated.

Like-named read-outs stand apart in the source and are kept apart here.

Turning to `CC(C)Oc1cc(Oc2ccc(S(C)(=O)=O)nc2)cc(C(=O)Nc2ncc(Oc3cccc(C(=O)O)c3)s2)c1` [Example 45], it took 34 nM to reach a half-maximal effect in test [1] (12 mM glucose) (EC50). On the same count and under the same terms, to `COC[C@H](C)Oc1cc(Oc2ccc(S(C)(=O)=O)cc2)cc(C(=O)Nc2ncc(Oc3cccc(C(=O)N4CCC4)c3)s2)c1` [Example 33] belongs 6 nM.

For `CC(C)Oc1cc(Oc2ccc(C(=O)N3CCC3)nc2)cc(C(=O)Nc2ncc(Oc3cccc(C(=O)O)c3)s2)c1` [Example 46], the Emax in test [1] (setting [3]) is 124%.

For `COC[C@H](C)Oc1cc(Oc2ccc(S(C)(=O)=O)cc2)cc(C(=O)Nc2ncc(Oc3cccc(C(=O)O)c3)s2)c1` [Example 4], a half-maximal effect in test [1] (12 mM glucose) (EC50) was put at 47 nM. Also, in test [2], the “Reduction in Glucose AUC at 30 mg/kg dose” value came to 37%. As to `CC(C)Oc1cc(OC(C)C)cc(C(=O)Nc2ncc(Oc3cccc(C(=O)O)c3)s2)c1` [Example 11], the EC50 in test [1] (12 mM glucose) amounted to 171 nM.

Consider `CS(=O)(=O)c1ccc(Oc2cc(Oc3ccnc(Cl)c3)cc(C(=O)Nc3ncc(Oc4cccc(C(=O)O)c4)s3)c2)cc1` [Example 42], for which a half-maximal effect in test [1] (12 mM glucose) (EC50) was put at 170 nM. In test [1] (12 mM glucose), `COC[C@H](C)Oc1cc(Oc2ccc(S(C)(=O)=O)cc2)cc(C(=O)Nc2ncc(Oc3cccc(C(N)=O)c3)s2)c1` [Example 3] had a concentration for a half-maximal effect (EC50) of 13 nM. For the compound `CNC(=O)Oc1cccc(Oc2cnc(NC(=O)c3cc(Oc4ccc(S(C)(=O)=O)cc4)cc(O[C@@H](C)COC)c3)s2)c1` [Example 38], in test [1], the Emax is 144%. For the compound `COC[C@H](C)Oc1cc(O[C@@H](C)Cc2ccccc2)cc(C(=O)Nc2ncc(Oc3cccc(C(=O)O)c3)s2)c1` [Example 32], the Emax in test [1] (setting [3]) was 118%.

Regarding `CC(C)Oc1cc(OC(C)C)cc(C(=O)Nc2ncc(Oc3ccc(F)nc3)s2)c1` [Example 17], the EC50 in test [1] (12 mM glucose) turned out to be 179 nM. Regarding `COC[C@H](C)Oc1cc(Oc2ccc(S(C)(=O)=O)cc2)cc(C(=O)Nc2ncc(Oc3cccc(C(=O)N4CC(O)C4)c3)s2)c1` [Example 34], the concentration giving a half-maximal response (EC50) in test [1] (12 mM glucose) is 16 nM.
